Results reported in the supplement of paper PMC13380429.

Assays:
[1] = test system: A549-ACE2 infected with SARS-CoV-2; experiment: cell count relative to DMSO; higher = less toxic; conditions: 24 h
[2] = test system: Caco-2; experiment: cell viability relative to DMSO; higher = less toxic; conditions: 72 h
[3] = test system: Calu-3; experiment: as above; conditions: 72 h
[4] = test system: HepG2; experiment: as above; conditions: 72 h
[5] = test system: U2OS; experiment: as above; conditions: 72 h
[6] = test system: Vero E6; experiment: as above; conditions: 72 h
[7] = test system: A549-ACE2 infected with SARS-CoV-2; experiment: SARS-CoV-2 infection rate relative to DMSO; higher = more infection; conditions: 24 h
[8] = test system: A549-ACE2; experiment: drug-induced phospholipidosis relative to tamoxifen; higher = more phospholipidosis
[9] = test system: A549-ACE2 infected with SARS-CoV-2; experiment: morphology score (similarity to uninfected cells); higher = more like uninfected cells; conditions: 24 h
[10] = test system: Calu-3; experiment: relative viability EC50 (midpoint between 100% and the lowest measured viability); higher = less toxic; conditions: 72 h
[11] = test system: U2OS; experiment: as above; conditions: 72 h
[12] = test system: Vero E6; experiment: as above; conditions: 72 h
[13] = test system: Caco-2; experiment: drug sensitivity score (DSS) for viability; higher = more toxic; extreme values may be limits of the assay; conditions: 72 h
[14] = test system: Calu-3; experiment: as above; conditions: 72 h
[15] = test system: HepG2; experiment: as above; conditions: 72 h
[16] = test system: U2OS; experiment: as above; conditions: 72 h
[17] = test system: Vero E6; experiment: as above; conditions: 72 h
[18] = test system: Caco-2; experiment: relative viability EC50 (midpoint between 100% and the lowest measured viability); higher = less toxic; conditions: 72 h
[19] = test system: HepG2; experiment: as above; conditions: 72 h
[20] = test system: A549-ACE2; experiment: phospholipidosis EC50; higher = less potent phospholipidosis inducer

Cc1nc(Nc2ccc(F)cc2)nc(N2CCc3ccccc3C2C)c1C (stereo unspecified) [revaprazan]
Conditions | SARS-CoV-2 infection rate, [7] [%] | cell count, [1] [%] | cell viability, [2] [%] | cell viability, [3] [%] | cell viability, [4] [%] | cell viability, [5] [%] | cell viability, [6] [%] | morphology score, [9]
1 nM | – | – | 98.3 | 97.5 | 98.2 | 101 | 90.2 | –
10 nM | – | – | 96.7 | 102 | 106 | 100 | 106 | –
100 nM | – | – | 104 | 106 | 96.3 | 102 | 92.7 | –
0.3 µM | 91 | 105 | – | – | – | – | – | 0.16
1000 nM | – | – | 97.6 | 92 | 110 | 97.1 | 98.1 | –
3 µM | 61 | 110 | – | – | – | – | – | 0.59
10 µM | 33 | 115 | – | – | – | – | – | 0.78
10000 nM | – | – | 71.6 | 99.8 | 60.4 | 81.5 | 95.8 | –
30 µM | 19 | 99 | – | – | – | – | – | 0.77

drug-induced phospholipidosis [%], [8]
Conditions | 0.3 µM | 0.833333 µM | 3.33333 µM | 6.66667 µM | 10 µM | 30 µM
24 h | 0.84 | 3.77 | 8.66 | 7.71 | 18.8 | 34.5
48 h | 2.14 | 1.27 | 2.71 | 2.07 | 8.48 | 17.2
72 h | 2.77 | -0.285 | 3.45 | 3.85 | 13.8 | 30.9

Conditions | drug sensitivity score | relative viability EC50 [µM]
[10] | – | > 10
[11] | – | > 10
[12] | – | > 10
[13] | 1.6 | –
[14] | 0 | –
[15] | 1.5 | –
[16] | 0.8 | –
[17] | 0 | –

C[C@H]1[C@H](NC(=O)/C(=N\OC(C)(C)C(=O)O)c2csc(N)n2)C(=O)N1S(=O)(=O)O [aztreonam]
Conditions | SARS-CoV-2 infection rate, [7] [%] | cell count, [1] [%] | cell viability, [2] [%] | cell viability, [3] [%] | cell viability, [4] [%] | cell viability, [5] [%] | cell viability, [6] [%] | morphology score, [9]
1 nM | – | – | 96.9 | 103 | 93 | 99.3 | 93 | –
10 nM | – | – | 91.7 | 99.8 | 108 | 93.9 | 95.2 | –
100 nM | – | – | 94.5 | 94.6 | 96.3 | 98.4 | 93.3 | –
0.3 µM | 105 | 102 | – | – | – | – | – | 0.12
1000 nM | – | – | 96.2 | 95.6 | 101 | 97.6 | 96.1 | –
3 µM | 109 | 97 | – | – | – | – | – | -0.22
10 µM | 98 | 99 | – | – | – | – | – | 0.07
10000 nM | – | – | 104 | 103 | 104 | 92.5 | 102 | –
30 µM | 93 | 107 | – | – | – | – | – | 0.28

drug-induced phospholipidosis [%], [8]
Conditions | 0.3 µM | 0.833333 µM | 3.33333 µM | 6.66667 µM | 10 µM | 30 µM
24 h | 0.05 | -0.48 | -0.4 | 1.8 | 0.46 | 0.6
48 h | 4.27 | 0.47 | -0.36 | -0.48 | 2.78 | 5.88
72 h | 2.06 | -3.37 | -0.186 | -0.381 | 3.05 | 4.25

Conditions | drug sensitivity score | relative viability EC50 [µM]
[10] | – | > 10
[11] | – | > 10
[12] | – | > 10
[13] | 0 | –
[14] | 0 | –
[15] | 0 | –
[16] | 0 | –
[17] | 0 | –
[18] | – | > 10
[19] | – | > 10

COc1ccc(NC(=O)c2ccc(-c3ccc(-c4noc(C)n4)cc3C)cc2)cc1N1CCN(C)CC1
Conditions | SARS-CoV-2 infection rate [%] | cell count [%] | cell viability [%] | morphology score | phospholipidosis EC50 [µM]
[1], 0.1 µM | – | 97 | – | – | –
[1], 0.3 µM | – | 104 | – | – | –
[1], 1 µM | – | 109 | – | – | –
[1], 3 µM | – | 117 | – | – | –
[2], 1 nM | – | – | 105 | – | –
[2], 10 nM | – | – | 92.5 | – | –
[2], 100 nM | – | – | 98.8 | – | –
[2], 1000 nM | – | – | 94.4 | – | –
[2], 10000 nM | – | – | 42.8 | – | –
[3], 1 nM | – | – | 110 | – | –
[3], 10 nM | – | – | 109 | – | –
[3], 100 nM | – | – | 99.2 | – | –
[3], 1000 nM | – | – | 102 | – | –
[3], 10000 nM | – | – | 7.9 | – | –
[4], 1 nM | – | – | 97.5 | – | –
[4], 10 nM | – | – | 109 | – | –
[4], 100 nM | – | – | 98.9 | – | –
[4], 1000 nM | – | – | 103 | – | –
[4], 10000 nM | – | – | 19.1 | – | –
[5], 1 nM | – | – | 103 | – | –
[5], 10 nM | – | – | 102 | – | –
[5], 100 nM | – | – | 106 | – | –
[5], 1000 nM | – | – | 99.3 | – | –
[5], 10000 nM | – | – | 54.2 | – | –
[6], 1 nM | – | – | 106 | – | –
[6], 10 nM | – | – | 101 | – | –
[6], 100 nM | – | – | 105 | – | –
[6], 1000 nM | – | – | 96.6 | – | –
[6], 10000 nM | – | – | 31.6 | – | –
[7], 0.1 µM | 106 | – | – | – | –
[7], 0.3 µM | 99 | – | – | – | –
[7], 1 µM | 85 | – | – | – | –
[7], 3 µM | 31 | – | – | – | –
[9], 0.1 µM | – | – | – | -0.16 | –
[9], 0.3 µM | – | – | – | 0.15 | –
[9], 1 µM | – | – | – | 0.46 | –
[9], 3 µM | – | – | – | 0.78 | –
[20], 24 h | – | – | – | – | 0.719
[20], 48 h | – | – | – | – | 0.984
[20], 72 h | – | – | – | – | 1.27

drug-induced phospholipidosis [%], [8]
Conditions | 0.3 µM | 0.833333 µM | 3.33333 µM | 6.66667 µM | 10 µM | 30 µM
24 h | 2.12 | 35 | 61.8 | 56.7 | 35.2 | 28.3
48 h | 4.59 | 17.3 | 79.1 | 76.8 | 56.3 | –
72 h | 4.03 | 12.8 | 79.8 | 80.8 | – | –

Conditions | drug sensitivity score | relative viability EC50 [µM]
[10] | – | 3.27
[12] | – | 2.79
[13] | 4 | –
[14] | 5 | –
[15] | 4.2 | –
[16] | 2.5 | –
[17] | 4.2 | –
[18] | – | 2.36
[19] | – | 3.38

C=C[C@@]1(C)CC(=O)[C@]2(O)[C@@]3(C)[C@@H](O)CCC(C)(C)[C@@H]3[C@H](OC(=O)CCN(C)C)[C@H](OC(C)=O)[C@@]2(C)O1 [colforsin-daproate]
Conditions | SARS-CoV-2 infection rate, [7] [%] | cell count, [1] [%] | cell viability, [2] [%] | cell viability, [3] [%] | cell viability, [4] [%] | cell viability, [5] [%] | cell viability, [6] [%] | morphology score, [9]
1 nM | – | – | 101 | 103 | 93.9 | 105 | 98 | –
10 nM | – | – | 98.9 | 95.5 | 100 | 103 | 93.9 | –
0.1 µM | 88 | 99 | – | – | – | – | – | 0.33
100 nM | – | – | 109 | 99.2 | 94 | 102 | 96.5 | –
0.3 µM | 98 | 105 | – | – | – | – | – | 0.05
1 µM | 106 | 105 | – | – | – | – | – | -0.06
1000 nM | – | – | 94 | 106 | 100 | 101 | 90.5 | –
3 µM | 108 | 104 | – | – | – | – | – | -0.03
10000 nM | – | – | 89.1 | 98.9 | 95.3 | 97.3 | 77 | –

drug-induced phospholipidosis [%], [8]
Conditions | 0.3 µM | 0.833333 µM | 3.33333 µM | 6.66667 µM | 10 µM | 30 µM
24 h | -0.11 | -0.39 | -2.43 | 1 | 1.72 | 23.6
48 h | 0.82 | -1.25 | -1.96 | 0.45 | 2.53 | 34.6
72 h | 2.97 | -1.9 | -2.38 | -1.51 | 0.457 | –

Conditions | drug sensitivity score | relative viability EC50 [µM]
[10] | – | > 10
[11] | – | > 10
[12] | – | > 10
[13] | 0.1 | –
[14] | 0 | –
[15] | 0 | –
[16] | 0 | –
[17] | 1.3 | –
[18] | – | > 10
[19] | – | > 10
